For 6 compounds, inhibition, EC50 and Ki results are on record in patent publication US20120184747A1, “ANILINE COMPOUND” (UBE INDUSTRIES, LTD., priority 2009, published 2012).

Experiment [1] relates to isolated guinea pig trachea. The experiment in a line: Isolated guinea pig trachea relaxation test. The settings on record: Cavia porcellus, read-out: Contraction-inhibiting rate (%). How it is done: The tracheas were isolated from guinea pigs (Hartley, male, age 7 to 9 weeks, supplier: Nippon SLC) followed by cutting as rings containing cartilage. The trachea specimens were suspended in Krebs solution containing 3 μM indomethacin while applying a load of 1.0 g, and changes in tension were measured through an FD pickup (TB-611T, Nippon Kohden). […] After causing the trachea specimen to contract by electrical field stimulation (SEN-3401, Nippon Kohden) and the contractive reaction being stable, a test compound dissolved in dimethylsulfoxide was added to cause the trachea specimen to relax. The inhibiting rate to the contractive reaction before adding the compound was calculated.

Experiment [2] concerns the target T1, human EP2 receptor (Homo sapiens, UniProt P43116).
T1 construct: host or cells: HEK293 cells
The experiment in a line: Measurement of EP2 agonist activity (cAMP in HEK293 cells expressing human EP2 receptor). To be noted: cAMP increase in HEK293 cells expressing human EP2 receptor, 30 minutes. Type of experiment: cell-based. How it is done:
Measurement of EP2 agonist activity was carried out in compliance with the method of Wilson et al. (European Journal of Pharmacology, 501, 49 (2004)). HEK293 cells expressing human EP2 receptor (ES-562-C, available from Euroscreen) were cultured in MEM medium containing 10% FBS and seeded at 2×10^4 cells per well of a 96-well plate. On the following day, the medium was replaced with serumfree MEM medium containing 3-isobutyl-1-methylxanthine (final concentration: 500 μM) and after culturing for 30 minutes, a test compound dissolved in dimethylsulfoxide was added followed by allowing to stand undisturbed in a carbon dioxide incubator. After 30 minutes, the amount of cAMP in the cells was measured with a cAMP Biotrak EIA System kit (available from GE Healthcare Biosciences). The concentration of test compound required to increase the amount of cAMP to 50% of the maximum increase (EC50 value) was calculated by non-linear regression of the test compound concentration and amount of cAMP using EXSAS.

The target in experiment [3] is T1, human EP2 receptor. As to the kind of experiment: Measurement of EP2 receptor binding action. The settings on record: membrane fraction of HEK293 cells expressing human EP2 receptor; [3H]prostaglandin 10 nM; Ki calculated from IC50. How it is done:
Measurement of EP2 receptor binding action was carried out in compliance with the method of Abramovitz et al. (Biochimica et Biophysica Acta, 1483, 285 (2000)). A test compound dissolved in dimethylsulfoxide and [^3H]prostaglandin […] (NET-428, PerkinElmer) (final concentration: 10 nM) were added to a buffer solution (10 mM MES-KOH (pH 6.0), 10 mM MgCl2, 1 mM EDTA) in which was suspended 10 μg of a membrane fraction of HEK293 cells expressing human EP2 receptor (ES-562-M, available from Euroscreen) followed by incubating at 30° C. for 60 minutes. The membrane fraction was recovered on glass fiber filter paper (GF/B, Whatmann) using a cell harvester (M30R, Brandel), and after washing with buffer solution (10 mM MES-KOH (pH 6.0), 10 mM MgCl2), radioactivity was measured with a liquid scintillation analyzer (2000CA, Packard).
Ki=IC50/(1+([^3H]prostaglandin E2 concentration/Kd))
The dissociation constant (Kd value) was calculated by Scatchard analysis.

For orientation: EC50 means the concentration at which the effect is half-maximal. What is called Ki is a dissociation constant, usually derived from enzyme kinetics or from competition with a known ligand.

Structures can show the parent of a compound that is named as a salt. Where two headings read alike, the source gives them in different places.

T1 sequence (P43116 whole entry): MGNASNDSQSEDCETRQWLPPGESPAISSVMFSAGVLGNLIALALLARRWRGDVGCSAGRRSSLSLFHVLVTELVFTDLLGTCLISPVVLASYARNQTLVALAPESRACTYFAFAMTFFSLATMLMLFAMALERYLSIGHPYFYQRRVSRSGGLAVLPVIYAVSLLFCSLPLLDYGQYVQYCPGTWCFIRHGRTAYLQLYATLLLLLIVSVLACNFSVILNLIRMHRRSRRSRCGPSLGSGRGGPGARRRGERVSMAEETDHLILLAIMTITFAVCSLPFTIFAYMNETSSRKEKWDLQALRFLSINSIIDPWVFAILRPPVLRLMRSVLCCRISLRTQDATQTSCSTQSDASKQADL

For the compound `CC[N+](C)(CC)c1ccc(CN(Cc2cccc(NCC(=O)O)n2)S(=O)(=O)c2cccnc2)cc1` [Example 4, [6-({4-[Diethyl(methyl)ammonio]benzyl}(pyridin-3-ylsulfonyl)aminomethyl)pyridin-2-ylamino]acetic acid hydrochloride], the inhibition at 10 µM in experiment [1] (test compound concentration 10 μM, contraction by electrical field stimulation) worked out at 81%. In turn, `CCCCN(C)c1ccc(CN(Cc2cccc(NCC(=O)O)n2)S(=O)(=O)c2ccccn2)cc1` [Example 7, [6-({4-[Butyl(methyl)amino]benzyl}(pyridin-2-ylsulfonyl)aminomethyl)pyridin-2-ylamino]acetic acid] yielded an EC50 at human EP2 receptor [2] of 1.2 nM. Further, the Ki at human EP2 receptor [3] is 10 nM. Moreover, in experiment [1], the inhibition at 0.03 µM was 84%. For `CN(Cc1ccccc1)c1ccc(CN(Cc2cccc(NCC(=O)O)n2)S(=O)(=O)c2cccnc2)cc1` [Example 6, [6-({4-[Benzyl(methyl)amino]benzyl}(pyridin-3-ylsulfonyl)aminomethyl)pyridin-2-ylamino]acetic acid], the inhibition at 10 µM in experiment [1] is 94%. Still for that read-out and setting: with `CNc1ccc(CN(Cc2cccc(NCC(=O)O)n2)S(=O)(=O)c2cccnc2)cc1` [Example 1, {6-[(4-Methylaminobenzyl) (pyridin-3-ylsulfonyl)aminomethyl]pyridin-2-ylamino}-acetic acid] the figure was 95%; with `CCCC(=O)N(C)c1ccc(CN(Cc2cccc(NCC(=O)O)n2)S(=O)(=O)c2cccnc2)cc1` [Example 5, [6-({4-[Butyryl(methyl)amino]benzyl}(pyridin-3-ylsulfonyl)aminomethyl)pyridin-2-ylamino]acetic acid], 92%; with `CCCS(=O)(=O)N(C)c1ccc(CN(Cc2cccc(NCC(=O)O)n2)S(=O)(=O)c2cccnc2)cc1` [Example 2, [6-({4-[Methyl(propylsulfonyl)amino]benzyl}(pyridin-3-ylsulfonyl)aminomethyl)pyridin-2-ylamino]acetic acid], 86%.
